Test results as given in US20260240906A1, “MUSCLE MASS INCREASING AGENT AND ENDURANCE IMPROVING AGENT” (KOHAKU BIO TECHNOLOGY CO., LTD., priority 2023, published 2026).

What was measured:
Assay type in all cases: cell-based, mouse
C2Cl2 myotube cells [1] = assay: Detection of mitochondrial membrane potential (JC-1); details: 1, 2.5, or 5 μg/mL, 24 hours
Experimental: (§1) The amber extract obtained through extraction by the method of Example 1 was analyzed for its action using myoblasts C2Cl2. The C2Cl2 cells are cells established from mouse regenerating muscles (striated muscles) and are considered to be derived from muscle satellite cells. The myoblasts, when cultured in a differentiation inducing medium, are fused and differentiated into myotube cells.
(§2) The C2Cl2 myoblasts were cultured in Dulbecco's modified Eagle medium (DMEM) supplemented with 10% FBS, penicillin (100 Us/ml), and streptomycin ([…]) under conditions of 37° C. and 5% CO2. Differentiation into myotube cells was induced by medium replacement with DMEM containing 2% horse serum when the cells reached 95% confluency. The experiment was carried out using the differentiated C2Cl2 myotube after 5 to 7 days from the induction of differentiation.
Mitochondrial membrane potential serving as an indicator for mitochondrial activation was also analyzed. C2Cl2 cells were inoculated at 0.5×10^4 cells/well to a 96-well plate and cultured at 37° C. for 48 hours until confluent. […] The mitochondrial membrane potential was measured at green: 485/535 nm (excitation/fluorescence) and red: 535/595 nm (excitation/fluorescence) using JC-1 MitoMP Detection Kit (Dojindo Laboratories).

C2Cl2 myotube cells [2] = assay: Effect on intracellular ATP concentration (luciferin-luciferase system); details: 6 hours or 12 hours
Experimental: as §1, §2
Intracellular ATP levels were measured using a luciferin-luciferase system. C2Cl2 cells were inoculated at 0.5×10^4 cells/well to a 96-well plate and cultured at 37° C. for 48 hours until confluent. After induction of differentiation for 5 days, the cells were treated with the amber extract (25 or 50 μg/mL) prepared by the method of Example 1 or succinic acid (2.5 or 5 μg/mL) for 6 hours or 12 hours. The luminescence of each well was measured at 480/530 nm (excitation/luminescence) using a microplate reader (Synergy H1, BioTek Instruments).

C2Cl2 myotube cells [3] = assay: Detection of mitochondrial ROS; details: 1, 2.5, or 5 μg/mL, 24 hours
Experimental: as §1, §2
Accordingly, in order to confirm this, mitochondrial ROS was detected. C2Cl2 cells were inoculated at 0.5×10^4 cells/well to a 96-well plate and cultured at 37° C. for 48 hours until confluent. After induction of differentiation for 5 days in a differentiation inducing medium, the cells were treated with the amber extract ([…]) or succinic acid (1, 2.5, or 5 μg/mL) for 24 hours. The mitochondrial ROS was measured at 485/565 nm (excitation/fluorescence) using Mitochondrial ROS Detection Assay Kit (Cayman Chemical Company).

O=C(O)CCC(=O)O [succinic acid]
mitochondrial activation (membrane potential) (C2Cl2 myotube cells [1]): no mitochondrial activation
ATP concentration (C2Cl2 myotube cells [2]; 2.5 μg/mL): no change
ATP concentration (C2Cl2 myotube cells [2]; 5 ug/mL): no change
mitochondrial activation (mitochondrial ROS) (C2Cl2 myotube cells [3]): no mitochondrial activation
